Test results taken from patent US20060079453A1, “Hla binding peptides and their uses” (priority 2002, published 2006).
Read-outs that look alike come from different tables or passages of the source. No end group written: not given here.

Legend:
Assay in all cases: biochemical
Format in all cases: binding
HLA-DR DRB1*0101 (DR1) = HLA-DR DRB1*0101 (DR1) (Homo sapiens, UniProt P01903+P01911, A100R/D57E/F55L/F60I/F76Y/I96L/L162R/M171V/P40L/Q125E/R42F/V115G/Y59C); conditions: DRB1 *0101
HLA-DR DRB1*0301 (DR3) = HLA-DR DRB1*0301 (DR3) (Homo sapiens, UniProt P01903+P01911, A100K/A102G/A103R/A169T/F55Y/I96L/K41T/L162R/M171V/P40S/Q125H/Q178H/Q39Y/R42S/S66N/T106N/T262R/W38E/Y61H)
HLA-DR DRB1*0401 (DR4) = HLA-DR DRB1*0401 (DR4) (Homo sapiens, UniProt P01903+P01911, A100K/A169T/F76Y/I96L/K127E/L162R/M171V/N62H/P40V/Q125Y/R42H/S133A/S149N/S66Y/V115G/V209L/W38E); conditions: DRB1 *0401
HLA-DR DRB1*0701 (DR7) = HLA-DR DRB1*0701 (DR7) (Homo sapiens, UniProt P01903+P01911, A100R/A102G/A103Q/D57E/D86V/E43K/F76Y/K127E/L162R/M171V/P40G/Q125H/Q99D/R33Q/R42Y/R54Q/S133A/S66F/T210M/V115G/Y107V/Y59L/Y89S); conditions: DRB1 *0701
HLA-DR DRB1*0802 (DR8) = HLA-DR DRB1*0802 (DR8) (Homo sapiens, UniProt P01903+P01911, A100R/A103L/A169T/F76Y/H45Y/I96F/K41T/L162R/M171V/P40S/Q125H/Q178H/Q39Y/Q99D/R218S/R42G/S66Y/V115G/W38E)
HLA-DR DRB1*0901 (DR9) = HLA-DR DRB1*0901 (DR9) (Homo sapiens, UniProt P01903+P01911, A100R/A103E/D57H/D86V/F55Y/F60I/F76Y/I96F/K127E/L162R/M171V/P40D/Q125H/Q99R/R33Q/R42F/S133A/S66N/T210M/V115G/W38K/Y107V/Y59G/Y89S); conditions: DRB1 *0901
HLA-DR DRB1*1101 (DR11) = HLA-DR DRB1*1101 (DR11) (Homo sapiens, UniProt P01903+P01911, A100R/A169T/A87E/I96F/K41T/L162R/M171V/P40S/Q125H/Q178H/Q39Y/Q99D/R42S/S66Y/T262R/V115G/W38E); conditions: DRB1 *1101
HLA-DR DRB1*1302 (DR13) = HLA-DR DRB1*1302 (DR13) (Homo sapiens, UniProt P01903+P01911, A100E/A169T/K41T/L162R/M171V/P40S/Q125H/Q178H/Q39Y/Q99D/R42S/S66N/T262R/V115G/W38E/Y61H); conditions: DRBI *1302
HLA-DR DRB1*1501 (DR15) = HLA-DR DRB1*1501 (DR15) (Homo sapiens, UniProt P01903+P01911); conditions: DRBI *1501
HLA-DR DRB3*0101 (DR52) = HLA-DR DRB3*0101 (DR52) (Homo sapiens, UniProt P01903+P79483)
HLA-DR DRB4*0101 (DR53) = HLA-DR DRB4*0101 (DR53) (Homo sapiens, UniProt P01903+P13762, G164S); conditions: DRB4 *0101
HLA-DR DRB5*0101 (DR51) = HLA-DR DRB5*0101 (DR51) (Homo sapiens, UniProt P01903+Q30154); conditions: DRB5 *0101
HLA-A*0301 = HLA-A*0301 (Homo sapiens, UniProt P04439)
[1] = read-out: A*0301 binding affinity (expressed as an IC50)
[2] = read-out: A*0301 binding affinity (IC50)

Chain of HLA-DR DRB1*0301 (DR3) (P01903 26-254 limits assumed, other chains not shown): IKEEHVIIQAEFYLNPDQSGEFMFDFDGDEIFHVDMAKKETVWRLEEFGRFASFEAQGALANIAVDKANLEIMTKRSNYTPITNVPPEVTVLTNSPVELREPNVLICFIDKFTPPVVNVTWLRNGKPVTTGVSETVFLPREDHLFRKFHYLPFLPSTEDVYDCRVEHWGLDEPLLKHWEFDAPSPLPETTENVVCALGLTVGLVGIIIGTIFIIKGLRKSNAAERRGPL
Chain of HLA-DR DRB1*1302 (DR13) (P01903 26-254 limits assumed, other chains not shown): as above
Chain of HLA-DR DRB1*1101 (DR11) (P01903 26-254 limits assumed, other chains not shown): as above

Molecule | IC50 (HLA-DR DRB1*0101 (DR1)) [nM] | IC50 (HLA-DR DRB1*0301 (DR3)) [nM] | IC50 (HLA-DR DRB1*0401 (DR4)) [nM] | IC50 (HLA-DR DRB1*0701 (DR7)) [nM] | IC50 (HLA-DR DRB1*0802 (DR8)) [nM] | IC50 (HLA-DR DRB1*0901 (DR9)) [nM] | IC50 (HLA-DR DRB1*1101 (DR11)) [nM] | IC50 (HLA-DR DRB1*1302 (DR13)) [nM] | IC50 (HLA-DR DRB1*1501 (DR15)) [nM] | IC50 (HLA-DR DRB3*0101 (DR52)) [nM] | IC50 (HLA-DR DRB4*0101 (DR53)) [nM] | IC50 (HLA-DR DRB5*0101 (DR51)) [nM] | IC50 (HLA-A*0301; [1]) [nM] | IC50 (HLA-A*0301; [2]) [nM]
CC[C@H](C)[C@H](NC(=O)[C@H](CS)NC(=O)[C@H](Cc1c[nH]cn1)NC(=O)[C@H](C)N)C(=O)N[C@@H](CCCNC(=N)N)C(=O)N[C@@H](CC(N)=O)C(=O)N[C@@H](CCCCN)C(=O)N[C@@H](CO)C(=O)N[C@H](C(=O)N[C@H](C(=O)N[C@@H](CC(C)C)C(=O)N[C@@H](CC(C)C)C(=O)NCC(=O)N[C@@H](CCCNC(=N)N)C(=O)N[C@@H](Cc1c[nH]cn1)C(=O)O)[C@@H](C)CC)C(C)C | 578 | 29700 | 69 | 2570 | 104 | 715 | 93 | 75 | 88 | 4750 | 8.7 | 3630 | – | –
CSCC[C@H](NC(=O)[C@@H]1CCCN1C(=O)[C@@H](N)CC(=O)O)C(=O)N[C@@H](Cc1ccccc1)C(=O)N[C@@H](CCCCN)C(=O)N[C@@H](Cc1ccc(O)cc1)C(=O)N[C@@H](Cc1c[nH]cn1)C(=O)N[C@@H](CC(C)C)C(=O)N[C@H](C(=O)N[C@H](C(=O)N[C@@H](C)C(=O)N[C@@H](CCC(N)=O)C(=O)N[C@H](C(=O)N[C@@H](CCCNC(=N)N)C(=O)NCC(=O)O)C(C)C)C(C)C)[C@@H](C)O | 5.7 | > 75000 | 9.1 | 168 | 43 | 258 | 69 | 699 | 230 | 7300 | 467 | 11 | – | –
CC[C@H](C)[C@H](NC(=O)[C@H](CCCCN)NC(=O)[C@H](CCSC)NC(=O)[C@H](CC(=O)O)NC(=O)[C@H](CCCNC(=N)N)NC(=O)[C@H](CCC(=O)O)NC(=O)[C@H](CC(C)C)NC(=O)[C@H](CCCCN)NC(=O)[C@H](Cc1ccccc1)NC(=O)[C@@H](N)Cc1ccccc1)C(=O)N[C@@H](CC(N)=O)C(=O)N[C@@H](CS)C(=O)N[C@@H](CO)C(=O)NCC(=O)N[C@@H](CCCCN)C(=O)O | 4420 | 121 | 483 | > 23100 | 8110 | > 52300 | 9690 | 382 | > 3490 | 4920 | 98 | 3800 | – | –
CC[C@H](C)[C@H](NC(=O)[C@H](CO)NC(=O)[C@H](CC(N)=O)NC(=O)[C@H](C)NC(=O)[C@H](CC(C)C)NC(=O)[C@H](CCC(=O)O)NC(=O)[C@H](Cc1ccccc1)NC(=O)[C@@H](NC(=O)[C@H](CCSC)NC(=O)CN)C(C)C)C(=O)N[C@H](C(=O)N[C@@H](CC(C)C)C(=O)N1CCC[C@H]1C(=O)N[C@@H](Cc1ccccc1)C(=O)N[C@@H](CC(=O)O)C(=O)O)C(C)C | 15 | 4600 | 230 | 30 | 5000 | 81 | > 50000 | 12 | 83 | 234 | 4150 | 903 | – | –
CSCC[C@H](NC(=O)[C@H](CC(C)C)NC(=O)[C@H](CC(=O)O)NC(=O)[C@@H](N)Cc1c[nH]cn1)C(=O)N[C@@H](CC(C)C)C(=O)N[C@@H](CC(C)C)C(=O)N[C@@H](CCCNC(=N)N)C(=O)N[C@@H](CC(C)C)C(=O)N[C@@H](CO)C(=O)N[C@@H](CCC(=O)O)C(=O)N1CCC[C@H]1C(=O)N[C@@H](C)C(=O)N[C@@H](CCC(=O)O)C(=O)N[C@@H](CC(C)C)C(=O)N[C@H](C(=O)O)[C@@H](C)O | 62 | 2870 | 6190 | 152 | 3910 | 22 | 2140 | 2.3 | 662 | 5310 | 45 | 10500 | – | –
CC[C@H](C)[C@H](NC(=O)[C@@H]1CCCN1C(=O)[C@@H](N)CC(N)=O)C(=O)N[C@@H](CC(C)C)C(=O)N[C@@H](CC(C)C)C(=O)N[C@@H](Cc1c[nH]c2ccccc12)C(=O)N[C@@H](CCC(N)=O)C(=O)N1CCC[C@H]1C(=O)N[C@H](C(=O)N1CCC[C@H]1C(=O)N[C@H](C(=O)N[C@@H](Cc1c[nH]cn1)C(=O)N[C@H](C(=O)N[C@H](C(=O)N1CCC[C@H]1C(=O)O)C(C)C)[C@@H](C)O)C(C)C)[C@@H](C)CC | 31 | > 81800 | 206 | 41 | 13000 | 575 | 599 | 250 | 4.6 | > 8830 | 67 | 25000 | – | –
CC[C@H](C)[C@H](NC(=O)[C@H](Cc1c[nH]c2ccccc12)NC(=O)[C@H](CCCCN)NC(=O)[C@H](CCCNC(=N)N)NC(=O)[C@H](Cc1ccc(O)cc1)NC(=O)[C@H](Cc1c[nH]cn1)NC(=O)[C@@H](NC(=O)[C@@H](NC(=O)[C@H](CCCCN)NC(=O)[C@@H](NC(=O)[C@H](Cc1ccc(O)cc1)NC(=O)[C@H](CC(C)C)NC(=O)[C@H](CO)NC(=O)[C@@H]1CCCN1C(=O)[C@@H](N)CCCNC(=N)N)[C@@H](C)O)C(C)C)C(C)C)C(=O)O | 6040 | 53800 | 339 | 652 | 39 | 5480 | 350 | 4180 | 717 | 2980 | 4900 | 13 | – | –
CC[C@H](C)[C@H](NC(=O)[C@H](CO)NC(=O)[C@H](CO)NC(=O)[C@H](CC(=O)O)NC(=O)[C@H](C)NC(=O)[C@H](CC(N)=O)NC(=O)[C@@H](NC(=O)[C@H](Cc1ccc(O)cc1)NC(=O)[C@H](C)NC(=O)[C@@H](N)C(C)C)[C@@H](C)CC)C(=O)N[C@@H](CCC(=O)O)C(=O)NCC(=O)N[C@@H](CC(N)=O)C(=O)N[C@@H](Cc1ccc(O)cc1)C(=O)N[C@H](C(=O)O)[C@@H](C)O | 4720 | 531 | 411 | 9740 | 106000 | 5470 | > 18900 | 2150 | > 3490 | 471 | 841 | > 37800 | – | –
HPQWVLTAAHCLKKN | 22 | 1100 | 875 | 563 | 1690 | 822 | 981 | 483 | 1220 | 8110 | 1110 | 11 | – | –
LHLLSNDMCARAYSE | 2100 | 938 | 4280 | 27700 | 50200 | 59900 | 26000 | 1880 | > 2370 | 1310 | 324 | 28800 | – | –
LLIRGINCQR | – | – | – | – | – | – | – | – | – | – | – | – | 2820 | –
LVYESSADDLR | – | – | – | – | – | – | – | – | – | – | – | – | – | > 47000
RTQCVQGKK | – | – | – | – | – | – | – | – | – | – | – | – | – | 234
WTGSCLGGWK | – | – | – | – | – | – | – | – | – | – | – | – | – | 7710
WVGRGIACWR | – | – | – | – | – | – | – | – | – | – | – | – | 6230 | –
YLVTGERGFFYTPKT | 779 | 517 | > 20500 | 7740 | 29200 | 6300 | 7620 | 2100 | > 25600 | 13700 | 20700 | > 28400 | – | –
